{
  "source": "patent US20250059174A1",
  "about": "“Pharmaceutical Compounds and Compositions as C-Kit Kinase Inhibitors” (Enanta Pharmaceuticals, Inc., priority 2023, published 2025)",
  "key": {"[1]": {"molecular_target": "Recombinant human c-KIT kinase (Homo sapiens (Human), UniProt P10721)", "sequence (P10721 26-976)": "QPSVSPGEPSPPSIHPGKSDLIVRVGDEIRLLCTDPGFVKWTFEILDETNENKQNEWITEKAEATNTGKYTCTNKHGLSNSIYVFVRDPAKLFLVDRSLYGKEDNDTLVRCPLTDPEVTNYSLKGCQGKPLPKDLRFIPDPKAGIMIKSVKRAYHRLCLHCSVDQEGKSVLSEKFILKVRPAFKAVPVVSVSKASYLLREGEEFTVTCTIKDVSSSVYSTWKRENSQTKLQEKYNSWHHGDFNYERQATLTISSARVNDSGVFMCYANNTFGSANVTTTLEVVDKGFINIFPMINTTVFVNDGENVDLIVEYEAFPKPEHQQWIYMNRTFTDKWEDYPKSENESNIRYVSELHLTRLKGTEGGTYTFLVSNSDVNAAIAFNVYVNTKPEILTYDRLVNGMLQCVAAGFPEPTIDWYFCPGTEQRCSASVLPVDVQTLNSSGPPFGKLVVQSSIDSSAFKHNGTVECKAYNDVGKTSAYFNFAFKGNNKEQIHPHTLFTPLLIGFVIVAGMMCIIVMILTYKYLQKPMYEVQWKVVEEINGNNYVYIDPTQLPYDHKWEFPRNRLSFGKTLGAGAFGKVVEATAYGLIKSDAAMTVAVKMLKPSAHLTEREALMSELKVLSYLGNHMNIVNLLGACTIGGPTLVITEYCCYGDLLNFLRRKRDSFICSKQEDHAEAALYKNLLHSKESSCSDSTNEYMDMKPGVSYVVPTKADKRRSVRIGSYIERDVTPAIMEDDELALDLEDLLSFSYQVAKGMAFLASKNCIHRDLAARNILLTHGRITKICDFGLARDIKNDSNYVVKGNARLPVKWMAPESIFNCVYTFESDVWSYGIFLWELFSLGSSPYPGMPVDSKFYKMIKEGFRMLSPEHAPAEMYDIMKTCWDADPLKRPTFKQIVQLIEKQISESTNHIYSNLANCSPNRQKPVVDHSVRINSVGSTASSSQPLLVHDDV", "test": "c-KIT kinase chemiluminescence assay (ADP-Glo)", "assay_type": "biochemical", "conditions": "ATP 50 μM", "how_it_was_run": "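Recombinant human c-KIT preincubated 30 min at RT in 40 mM Tris pH 7.5, 20 mM MgCl2, 0.1 mg/mL BSA, 50 μM DTT, then reacted 2 h at RT with ATP and polyEY substrate. ADP-Glo luminescence readout; activity normalized to high/low controls, IC50 and Hill coefficient from inhibitor-versus-normalized-response fit.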"}, "M-07e cells": {"system": "M-07e cells", "test": "M-07e cellular assay (SCF-mediated cell proliferation)", "assay_type": "cell-based", "conditions": "Homo sapiens, 72 hours, CellTiter Glo", "how_it_was_run": "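CellTiter Glo luminescence after 72 h compound exposure in SCF (EC90)-stimulated M-07e cells expressing endogenous human c-KIT.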"}},
  "data": [
    {"compound": "COC(=O)N1CCC(c2nc(-c3ccc(C)c(NC(=O)c4cnn5ccc(N6CC7(C6)CC(O)(C(F)F)C7)cc45)c3)no2)C1", "note": "(stereo not shown) [Example 281-108]", "values": [
      {"measurement": "IC50", "setting": "[1]", "value": "< 100", "unit": "nM"},
      {"measurement": "EC50", "setting": "M-07e cells", "value": "< 100", "unit": "nM"}
    ]},
    {"compound": "COC(=O)N1CC2(CC(c3nc(-c4ccc(C)c(NC(=O)c5cnn6ccc(N7CC8(C7)CC(O)(C(F)F)C8)cc56)c4)no3)C2)C1", "note": "[Example 281-109]", "values": [
      {"measurement": "IC50", "setting": "[1]", "value": "< 100", "unit": "nM"},
      {"measurement": "EC50", "setting": "M-07e cells", "value": "100 to 1000", "unit": "nM"}
    ]},
    {"compound": "CCOC(=O)N1CC(c2nc(-c3ccc(C)c(NC(=O)c4cnn5ccc(N6CC7(COC7)C6)cc45)c3)no2)C1", "note": "[Example 281-110]", "values": [
      {"measurement": "IC50", "setting": "[1]", "value": "< 100", "unit": "nM"},
      {"measurement": "EC50", "setting": "M-07e cells", "value": "< 100", "unit": "nM"}
    ]},
    {"compound": "Cc1sc(-c2noc(C3(F)CN(C(=O)[C@H]4C[C@@H]4F)C3)n2)cc1NC(=O)c1cnn2ccc(N3CC4(C3)CC(O)(C(F)F)C4)cc12", "note": "[Example 281-111]", "values": [
      {"measurement": "IC50", "setting": "[1]", "value": "> 1000", "unit": "nM"},
      {"measurement": "EC50", "setting": "M-07e cells", "value": "100 to 1000", "unit": "nM"}
    ]},
    {"compound": "Cc1sc(-c2noc([C@H]3C[C@@H](OC(F)(F)F)C3)n2)cc1NC(=O)c1cnn2ccc(N3CC4(C3)CC(O)(C(F)F)C4)cc12", "note": "[Example 281-112]", "values": [
      {"measurement": "IC50", "setting": "[1]", "value": "< 100", "unit": "nM"},
      {"measurement": "EC50", "setting": "M-07e cells", "value": "100 to 1000", "unit": "nM"}
    ]},
    {"compound": "Cc1sc(-c2noc([C@H]3C[C@@H](OC(F)(F)F)C3)n2)cc1NC(=O)c1cnn2ccc(N3CC4(COC4)C3)cc12", "note": "[Example 281-113]", "values": [
      {"measurement": "IC50", "setting": "[1]", "value": "100 to 1000", "unit": "nM"},
      {"measurement": "EC50", "setting": "M-07e cells", "value": "100 to 1000", "unit": "nM"}
    ]},
    {"compound": "Cc1sc(-c2noc(C3CN(C(=O)OC(C)(C)C)C3)n2)cc1NC(=O)c1cnn2ccc(N3CC4(COC4)C3)cc12", "note": "[Example 281-114]", "values": [
      {"measurement": "IC50", "setting": "[1]", "value": "> 1000", "unit": "nM"},
      {"measurement": "EC50", "setting": "M-07e cells", "value": "> 1000", "unit": "nM"}
    ]},
    {"compound": "Cc1sc(-c2noc(C3CN(C(=O)OC(C)(C)C)C3)n2)cc1NC(=O)c1cnn2ccc(N3CC4(C3)CC(O)(C(F)F)C4)cc12", "note": "[Example 281-115]", "values": [
      {"measurement": "IC50", "setting": "[1]", "value": "> 1000", "unit": "nM"},
      {"measurement": "EC50", "setting": "M-07e cells", "value": "> 1000", "unit": "nM"}
    ]},
    {"compound": "O=C(Nc1cc(-c2noc([C@H]3C[C@@H]3F)n2)ccc1C(F)F)c1cnn2ccc(N3CC4(COC4)C3)cc12", "note": "[Example 281-116]", "values": [
      {"measurement": "IC50", "setting": "[1]", "value": "100 to 1000", "unit": "nM"},
      {"measurement": "EC50", "setting": "M-07e cells", "value": "100 to 1000", "unit": "nM"}
    ]},
    {"compound": "Cc1sc(-c2noc([C@H]3C[C@@H]3F)n2)cc1NC(=O)c1cnn2ccc(N3CC4(COC4)C3)cc12", "note": "[Example 281-117]", "values": [
      {"measurement": "IC50", "setting": "[1]", "value": "100 to 1000", "unit": "nM"},
      {"measurement": "EC50", "setting": "M-07e cells", "value": "100 to 1000", "unit": "nM"}
    ]},
    {"compound": "O=C(Nc1cc(-c2noc([C@H]3C[C@@H]3F)n2)ccc1C(F)F)c1cnn2ccc(N3CC4(C3)CC(O)(C(F)F)C4)cc12", "note": "[Example 281-118]", "values": [
      {"measurement": "IC50", "setting": "[1]", "value": "100 to 1000", "unit": "nM"},
      {"measurement": "EC50", "setting": "M-07e cells", "value": "< 100", "unit": "nM"}
    ]},
    {"compound": "O=C(Nc1cc(-c2noc(N3CC(F)(F)C3)n2)ccc1Cl)c1cnn2ccc(N3CC4(C3)CC(O)(C(F)F)C4)cc12", "note": "[Example 281-119]", "values": [
      {"measurement": "IC50", "setting": "[1]", "value": "100 to 1000", "unit": "nM"},
      {"measurement": "EC50", "setting": "M-07e cells", "value": "< 100", "unit": "nM"}
    ]},
    {"compound": "Cc1ncc(-c2noc(N3CC(F)(F)C3)n2)cc1NC(=O)c1cnn2ccc(N3CC4(COC4)C3)cc12", "note": "[Example 281-120]", "values": [
      {"measurement": "IC50", "setting": "[1]", "value": "100 to 1000", "unit": "nM"},
      {"measurement": "EC50", "setting": "M-07e cells", "value": "100 to 1000", "unit": "nM"}
    ]},
    {"compound": "Cc1ncc(-c2noc(N3CC(F)(F)C3)n2)cc1NC(=O)c1cnn2ccc(N3CC4(C3)CC(O)(C(F)F)C4)cc12", "note": "[Example 281-121]", "values": [
      {"measurement": "IC50", "setting": "[1]", "value": "100 to 1000", "unit": "nM"},
      {"measurement": "EC50", "setting": "M-07e cells", "value": "< 100", "unit": "nM"}
    ]},
    {"compound": "Cc1sc(-c2noc(C3CN(C(=O)C4CC4)C3)n2)cc1NC(=O)c1cnn2ccc(N3CC4(C3)CC(O)(C(F)F)C4)cc12", "note": "[Example 281-122]", "values": [
      {"measurement": "IC50", "setting": "[1]", "value": "100 to 1000", "unit": "nM"},
      {"measurement": "EC50", "setting": "M-07e cells", "value": "> 1000", "unit": "nM"}
    ]},
    {"compound": "O=C(Nc1cc(-c2noc(N3CC(O)(C(F)(F)F)C3)n2)ccc1Cl)c1cnn2ccc(N3CC4(COC4)C3)cc12", "note": "[Example 281-123]", "values": [
      {"measurement": "IC50", "setting": "[1]", "value": "< 100", "unit": "nM"},
      {"measurement": "EC50", "setting": "M-07e cells", "value": "< 100", "unit": "nM"}
    ]},
    {"compound": "O=C(Nc1cc(-c2noc(N3CC(F)(F)C3)n2)ccc1Cl)c1cnn2ccc(N3CC4(COC4)C3)cc12", "note": "[Example 281-124]", "values": [
      {"measurement": "IC50", "setting": "[1]", "value": "100 to 1000", "unit": "nM"},
      {"measurement": "EC50", "setting": "M-07e cells", "value": "< 100", "unit": "nM"}
    ]},
    {"compound": "O=C(Nc1cc(-c2noc(N3CC(O)(C(F)(F)F)C3)n2)ccc1Cl)c1cnn2ccc(N3CC4(C3)CC(O)(C(F)F)C4)cc12", "note": "[Example 281-125]", "values": [
      {"measurement": "IC50", "setting": "[1]", "value": "< 100", "unit": "nM"},
      {"measurement": "EC50", "setting": "M-07e cells", "value": "< 100", "unit": "nM"}
    ]},
    {"compound": "Cc1sc(-c2noc(C3CN(C(=O)[C@H]4C[C@@H]4F)C3)n2)cc1NC(=O)c1cnn2ccc(N3CC4(COC4)C3)cc12", "note": "[Example 281-126]", "values": [
      {"measurement": "IC50", "setting": "[1]", "value": "> 1000", "unit": "nM"},
      {"measurement": "EC50", "setting": "M-07e cells", "value": "> 1000", "unit": "nM"}
    ]},
    {"compound": "Cc1sc(-c2noc(C3CN(C(=O)[C@H]4C[C@@H]4F)C3)n2)cc1NC(=O)c1cnn2ccc(N3CC4(C3)CC(O)(C(F)F)C4)cc12", "note": "[Example 281-127]", "values": [
      {"measurement": "IC50", "setting": "[1]", "value": "100 to 1000", "unit": "nM"},
      {"measurement": "EC50", "setting": "M-07e cells", "value": "> 1000", "unit": "nM"}
    ]},
    {"compound": "Cc1sc(-c2noc(C3CN(C(=O)C4(F)CC4)C3)n2)cc1NC(=O)c1cnn2ccc(N3CC4(COC4)C3)cc12", "note": "[Example 281-128]", "values": [
      {"measurement": "IC50", "setting": "[1]", "value": "100 to 1000", "unit": "nM"},
      {"measurement": "EC50", "setting": "M-07e cells", "value": "100 to 1000", "unit": "nM"}
    ]},
    {"compound": "Cc1sc(-c2noc(C3CN(C(=O)C4(F)CC4)C3)n2)cc1NC(=O)c1cnn2ccc(N3CC4(C3)CC(O)(C(F)F)C4)cc12", "note": "[Example 281-129]", "values": [
      {"measurement": "IC50", "setting": "[1]", "value": "100 to 1000", "unit": "nM"},
      {"measurement": "EC50", "setting": "M-07e cells", "value": "100 to 1000", "unit": "nM"}
    ]},
    {"compound": "Cc1ncc(-c2noc(C3CN(CC(F)F)C3)n2)cc1NC(=O)c1cnn2ccc(N3CC4(C3)CC(O)(C(F)F)C4)cc12", "note": "[Example 281-130]", "values": [
      {"measurement": "IC50", "setting": "[1]", "value": "100 to 1000", "unit": "nM"},
      {"measurement": "EC50", "setting": "M-07e cells", "value": "100 to 1000", "unit": "nM"}
    ]},
    {"compound": "COC(=O)N1CCC(c2nc(-c3ccc(C)c(NC(=O)c4cnn5ccc(N6CC7(COC7)C6)cc45)c3)no2)C1", "note": "(stereo not shown) [Example 281-131]", "values": [
      {"measurement": "IC50", "setting": "[1]", "value": "< 100", "unit": "nM"},
      {"measurement": "EC50", "setting": "M-07e cells", "value": "< 100", "unit": "nM"}
    ]},
    {"compound": "COC(=O)N1CCC(c2nc(-c3ccc(C)c(NC(=O)c4cnn5ccc(N6CC7(COC7)C6)cc45)c3)no2)CC1", "note": "[Example 281-132]", "values": [
      {"measurement": "IC50", "setting": "[1]", "value": "< 100", "unit": "nM"},
      {"measurement": "EC50", "setting": "M-07e cells", "value": "< 100", "unit": "nM"}
    ]},
    {"compound": "COC(=O)N1CC2(CC(c3nc(-c4ccc(C)c(NC(=O)c5cnn6ccc(N7CC8(COC8)C7)cc56)c4)no3)C2)C1", "note": "[Example 281-133]", "values": [
      {"measurement": "IC50", "setting": "[1]", "value": "100 to 1000", "unit": "nM"},
      {"measurement": "EC50", "setting": "M-07e cells", "value": "100 to 1000", "unit": "nM"}
    ]}
  ]
}
